Columns and labels:
[1] = Coffee mug cross section analysis of brewed cup, 1:10 oil/TM mix underneath the filter; format: physicochemical; conditions: 1:10 oil/TM mix underneath filter
Procedure: This example investigated how THC was interacting with the coffee mug after it had been brewed. A cup of coffee was brewed with the 1:10 oil/TM mix placed in the K-Cup underneath the filter containing coffee grounds.
Two separate aliquots were taken from the cup (top and middle), and then coffee was carefully poured out. Methanol was added to the cup and the oil that had condensed to the sides of the cup was dissolved and quantified.

[2] = cited from earlier work

CCCCCc1cc(O)c2c(c1)OC(C)(C)[C@@H]1CCC(C)=C[C@@H]21 [THC, delta-9-tetrahydrocannabinol]
THC found in the oily coffee film at the top of the cup [1]: 20-25% | THC in the coffee [1]: approximately 60% | THC lost (unknown cause) [1]: 20% | THC in a 200 mL cup of coffee at aqueous solubility [2]: 0.6 mg

Source: patent US10897915B2, “Method for making coffee products containing cannabis ingredients” (Blacklist Holdings, Inc., priority 2014, dated 2021)
